This is an account of results in US9371280B2, “Substituted pyrrolidine-2-carboxamides” (Hoffmann-La Roche Inc., priority 2012, dated 2016).

Broadly, the IC50 is the concentration that inhibits the measured activity by half.

Where a name gives a salt, the structure may show the parent alone.

The target in this assay is interaction between p53 and MDM2 proteins (recombinant GST-tagged MDM2) (Homo sapiens, UniProt Q00987). Briefly: HTRF assay of inhibition of the p53-MDM2 interaction (GST-MDM2 / biotinylated p53 peptide).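 Note: FRET read-out from Eu-labelled anti-GST antibody to streptavidin-APC, with 90 nM N-terminally biotinylated p53 peptide and 160 ng/ml GST-MDM2 in Tris-borate saline containing 1 mM DTT, 384-well format.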 The note with it: HTRF, 0.02% BSA, 37° C. 1 h. In kind it is binding. A general note: In TR-FRET formats the signal depends on donor and acceptor labels being close together.
Chain of interaction between p53 and MDM2 proteins (recombinant GST-tagged MDM2) (Q00987 whole entry): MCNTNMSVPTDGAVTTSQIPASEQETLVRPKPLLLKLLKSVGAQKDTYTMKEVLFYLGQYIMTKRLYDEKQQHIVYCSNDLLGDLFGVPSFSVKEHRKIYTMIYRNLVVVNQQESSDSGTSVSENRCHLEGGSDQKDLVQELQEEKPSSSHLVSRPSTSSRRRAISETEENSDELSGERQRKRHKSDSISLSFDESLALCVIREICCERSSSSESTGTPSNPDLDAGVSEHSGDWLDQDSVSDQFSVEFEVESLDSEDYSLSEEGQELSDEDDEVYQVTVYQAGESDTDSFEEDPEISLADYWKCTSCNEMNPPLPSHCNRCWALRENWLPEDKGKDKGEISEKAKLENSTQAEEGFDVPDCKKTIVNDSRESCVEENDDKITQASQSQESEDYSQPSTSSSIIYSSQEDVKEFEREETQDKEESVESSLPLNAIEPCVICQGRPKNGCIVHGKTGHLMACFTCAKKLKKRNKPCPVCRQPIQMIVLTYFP
Protocol: The ability of the compounds to inhibit the interaction between p53 and MDM2 proteins was measured by an HTRF (homogeneous time-resolved fluorescence) assay in which recombinant GST-tagged MDM2 binds to a peptide that resembles the MDM2-interacting region of p53 (Lane et al.). Binding of GST-MDM2 protein and p53-peptide (biotinylated on its N-terminal end) is registered by the FRET (fluorescence resonance energy transfer) between Europium (Eu)-labeled anti-GST antibody and streptavidin-conjugated Allophycocyanin (APC).
Test is performed in black flat-bottom 384-well plates (Costar) in a total volume of 40 uL containing: 90 nM biotinylate peptide, 160 ng/ml GST-MDM2, 20 nM streptavidin-APC (PerkinElmerWallac), 2 nM Eu-labeled anti-GST-antibody (PerkinElmerWallac), 0.02% bovine serum albumin (BSA), 1 mM dithiothreitol (DTT) and 20 mM Tris-borate saline (TBS) buffer as follows: Add 10 uL of GST-MDM2 (640 ng/ml working solution) in reaction buffer to each well. […] Incubate at 37° C. for 1 h.
Turning to `COc1cc(C(=O)OCCOCCOCCOCCO)ccc1NC(=O)[C@@H]1N[C@@H](CC(C)(C)C)[C@](C#N)(c2ccc(Cl)cc2F)[C@H]1c1cccc(Cl)c1F` [Example 57, 4-{[(2R,3S,4R,5S)-4-(4-Chloro-2-fluoro-phenyl)-3-(3-chloro-2-fluoro-phenyl)-4-cyano-5-(2,2-dimethyl-propyl)-pyrrolidine-2-carbonyl]-amino}-3-methoxy-benzoic acid 2-{2-[2-(2-hydroxy-ethoxy)-ethoxy]-ethoxy}-ethyl ester, hydrochloride], the IC50 was 0.0172 µM. For `COc1cc(C(=O)OCCN2CCN(CCOC(=O)c3ccc(NC(=O)[C@@H]4N[C@@H](CC(C)(C)C)[C@](C#N)(c5ccc(Cl)cc5F)[C@H]4c4cccc(Cl)c4F)c(OC)c3)CC2)ccc1NC(=O)[C@@H]1N[C@@H](CC(C)(C)C)[C@](C#N)(c2ccc(Cl)cc2F)[C@H]1c1cccc(Cl)c1F` [Example 60, 4-{[(2R,3S,4R,5S)-4-(4-Chloro-2-fluoro-phenyl)-3-(3-chloro-2-fluoro-phenyl)-4-cyano-5-(2,2-dimethyl-propyl)-pyrrolidine-2-carbonyl]-amino}-3-methoxy-benzoic acid, 2-[4-(2-hydroxy-ethyl)-piperazin-1-yl]-ethyl ester, dimer], the IC50 turned out to be 0.211 µM. As to `COc1cc(C(=O)OCCN2CCN(CCO)CC2)ccc1NC(=O)[C@@H]1N[C@@H](CC(C)(C)C)[C@](C#N)(c2ccc(Cl)cc2F)[C@H]1c1cccc(Cl)c1F` [Example 61, 4-{[(2R,3S,4R,5S)-4-(4-Chloro-2-fluoro-phenyl)-3-(3-chloro-2-fluoro-phenyl)-4-cyano-5-(2,2-dimethyl-propyl)-pyrrolidine-2-carbonyl]-amino}-3-methoxy-benzoic acid 2-[4-(2-hydroxy-ethyl)-piperazin-1-yl]-ethyl ester], the IC50 came out at 0.0114 µM. Regarding `COc1cc(C(=O)OCC(=O)N2CCN(C)CC2)ccc1NC(=O)[C@@H]1N[C@@H](CC(C)(C)C)[C@](C#N)(c2ccc(Cl)cc2F)[C@H]1c1cccc(Cl)c1F` [Example 64, 4-{[(2R,3S,4R,5S)-4-(4-Chloro-2-fluoro-phenyl)-3-(3-chloro-2-fluoro-phenyl)-4-cyano-5-(2,2-dimethyl-propyl)-pyrrolidine-2-carbonyl]-amino}-3-methoxy-benzoic acid 2-(4-methyl-piperazin-1-yl)-2-oxo-ethyl ester, hydrochloride], the IC50 turned out to be 0.0116 µM. On to `COc1cc(C(=O)OCC(N)=O)ccc1NC(=O)[C@@H]1N[C@@H](CC(C)(C)C)[C@](C#N)(c2ccc(Cl)cc2F)[C@H]1c1cccc(Cl)c1F` [Example 65, 4-{[(2R,3S,4R,5S)-4-(4-Chloro-2-fluoro-phenyl)-3-(3-chloro-2-fluoro-phenyl)-4-cyano-5-(2,2-dimethyl-propyl)-pyrrolidine-2-carbonyl]-amino}-3-methoxy-benzoic acid carbamoylmethyl ester], for which the IC50 turned out to be 0.0129 µM. Regarding `COc1cc(C(=O)OCC(=O)N2CCOCC2)ccc1NC(=O)[C@@H]1N[C@@H](CC(C)(C)C)[C@](C#N)(c2ccc(Cl)cc2F)[C@H]1c1cccc(Cl)c1F` [Example 66, 4-{[(2R,3S,4R,5S)-4-(4-Chloro-2-fluoro-phenyl)-3-(3-chloro-2-fluoro-phenyl)-4-cyano-5-(2,2-dimethyl-propyl)-pyrrolidine-2-carbonyl]-amino}-3-methoxy-benzoic acid 2-morpholin-4-yl-2-oxo-ethyl ester], the IC50 stood at 0.00904 µM.

As for `COc1cc(C(=O)OCC(=O)NCC2COC(C)(C)O2)ccc1NC(=O)[C@@H]1N[C@@H](CC(C)(C)C)[C@](C#N)(c2ccc(Cl)cc2F)[C@H]1c1cccc(Cl)c1F` (stereo partly drawn) [Example 67, 4-{[(2R,3S,4R,5S)-4-(4-Chloro-2-fluoro-phenyl)-3-(3-chloro-2-fluoro-phenyl)-4-cyano-5-(2,2-dimethyl-propyl)-pyrrolidine-2-carbonyl]-amino}-3-methoxy-benzoic acid [(2,2-dimethyl-[1,3]dioxolan-4-ylmethyl)-carbamoyl]-methyl ester], the IC50 was 0.0118 µM.

Turning to `COc1cc(C(=O)OCC(=O)NCC(O)CO)ccc1NC(=O)[C@@H]1N[C@@H](CC(C)(C)C)[C@](C#N)(c2ccc(Cl)cc2F)[C@H]1c1cccc(Cl)c1F` (stereo partly drawn) [Example 68, 4-{[(2R,3S,4R,5S)-4-(4-Chloro-2-fluoro-phenyl)-3-(3-chloro-2-fluoro-phenyl)-4-cyano-5-(2,2-dimethyl-propyl)-pyrrolidine-2-carbonyl]-amino}-3-methoxy-benzoic acid (2,3-dihydroxy-propylcarbamoyl)-methyl ester], the IC50 came to 0.012 µM. `COc1cc(C(=O)OCC(=O)N[C@@H](CCC(=O)OCc2ccccc2)C(=O)OCc2ccccc2)ccc1NC(=O)[C@@H]1N[C@@H](CC(C)(C)C)[C@](C#N)(c2ccc(Cl)cc2F)[C@H]1c1cccc(Cl)c1F` [Example 70, (S)-2-[2-(4-{[(2R,3S,4R,5S)-4-(4-Chloro-2-fluoro-phenyl)-3-(3-chloro-2-fluoro-phenyl)-4-cyano-5-(2,2-dimethyl-propyl)-pyrrolidine-2-carbonyl]-amino}-3-methoxy-benzoyloxy)-acetylamino]-pentanedioic acid dibenzyl ester]: the IC50 is 0.0564 µM. Then `COc1cc(C(=O)OCC(=O)N[C@@H](CCC(=O)O)C(=O)O)ccc1NC(=O)[C@@H]1N[C@@H](CC(C)(C)C)[C@](C#N)(c2ccc(Cl)cc2F)[C@H]1c1cccc(Cl)c1F` [Example 71, (S)-2-[2-(4-{[(2R,3S,4R,5S)-4-(4-Chloro-2-fluoro-phenyl)-3-(3-chloro-2-fluoro-phenyl)-4-cyano-5-(2,2-dimethyl-propyl)-pyrrolidine-2-carbonyl]-amino}-3-methoxy-benzoyloxy)-acetylamino]-pentanedioic acid], with 0.00594 µM; and `COCCOCCOCCOC(=O)COC(=O)c1ccc(NC(=O)[C@@H]2N[C@@H](CC(C)(C)C)[C@](C#N)(c3ccc(Cl)cc3F)[C@H]2c2cccc(Cl)c2F)c(OC)c1` [Example 72, 4-{[(2R,3S,4R,5S)-4-(4-Chloro-2-fluoro-phenyl)-3-(3-chloro-2-fluoro-phenyl)-4-cyano-5-(2,2-dimethyl-propyl)-pyrrolidine-2-carbonyl]-amino}-3-methoxy-benzoic acid 2-[2-(2-methoxy-ethoxy)-ethoxy]-ethoxycarbonylmethyl ester], with 0.0203 µM. The same measure for `COCCOCCOCCOCCOC(=O)COC(=O)c1ccc(NC(=O)[C@@H]2N[C@@H](CC(C)(C)C)[C@](C#N)(c3ccc(Cl)cc3F)[C@H]2c2cccc(Cl)c2F)c(OC)c1` [Example 73, 4-{[(2R,3S,4R,5S)-4-(4-Chloro-2-fluoro-phenyl)-3-(3-chloro-2-fluoro-phenyl)-4-cyano-5-(2,2-dimethyl-propyl)-pyrrolidine-2-carbonyl]-amino}-3-methoxy-benzoic acid 2-{2-[2-(2-methoxy-ethoxy)-ethoxy]-ethoxy}-ethoxycarbonylmethyl ester]: 0.0196 µM. Take `COc1cc(C(=O)OCC(=O)NCCOCCOCCOCCO)ccc1NC(=O)[C@@H]1N[C@@H](CC(C)(C)C)[C@](C#N)(c2ccc(Cl)cc2F)[C@H]1c1cccc(Cl)c1F` [Example 75, 4-{[(2R,3S,4R,5S)-4-(4-Chloro-2-fluoro-phenyl)-3-(3-chloro-2-fluoro-phenyl)-4-cyano-5-(2,2-dimethyl-propyl)-pyrrolidine-2-carbonyl]-amino}-3-methoxy-benzoic acid (2-{2-[2-(2-hydroxy-ethoxy)-ethoxy]-ethoxy}-ethylcarbamoyl)-methyl ester]: the IC50 was 0.0092 µM. `COc1cc(C(=O)NCCOCCOCCOCCNC(=O)c2ccc(NC(=O)[C@@H]3N[C@@H](CC(C)(C)C)[C@](C#N)(c4ccc(Cl)cc4F)[C@H]3c3cccc(Cl)c3F)c(OC)c2)ccc1NC(=O)[C@@H]1N[C@@H](CC(C)(C)C)[C@](C#N)(c2ccc(Cl)cc2F)[C@H]1c1cccc(Cl)c1F` [Example 76, (2R,3S,4R,5S)-4-(4-Chloro-2-fluoro-phenyl)-3-(3-chloro-2-fluoro-phenyl)-4-cyano-5-(2,2-dimethyl-propyl)-pyrrolidine-2-carboxylic acid [4-(2-{2-[2-(2-amino-ethoxy)-ethoxy]-ethoxy}-ethylcarbamoyl)-2-methoxy-phenyl]-amide, dimer]: the IC50 turned out to be 0.0643 µM.

As to `COc1cc(C(=O)NCCOCCOCCOCCN)ccc1NC(=O)[C@@H]1N[C@@H](CC(C)(C)C)[C@](C#N)(c2ccc(Cl)cc2F)[C@H]1c1cccc(Cl)c1F` [Example 77, (2R,3S,4R,5S)-4-(4-Chloro-2-fluoro-phenyl)-3-(3-chloro-2-fluoro-phenyl)-4-cyano-5-(2,2-dimethyl-propyl)-pyrrolidine-2-carboxylic acid [4-(2-{2-[2-(2-amino-ethoxy)-ethoxy]-ethoxy}-ethylcarbamoyl)-2-methoxy-phenyl]-amide], the IC50 came out at 0.00631 µM.

On to `C=CCOC(=O)[C@H](CCCCNC(=O)OC(C)(C)C)NC(=O)COC(=O)c1ccc(NC(=O)[C@@H]2N[C@@H](CC(C)(C)C)[C@](C#N)(c3ccc(Cl)cc3F)[C@H]2c2cccc(Cl)c2F)c(OC)c1` [Example 78, 4-{[(2R,3S,4R,5S)-4-(4-Chloro-2-fluoro-phenyl)-3-(3-chloro-2-fluoro-phenyl)-4-cyano-5-(2,2-dimethyl-propyl)-pyrrolidine-2-carbonyl]-amino}-3-methoxy-benzoic acid ((S)-1-allyloxycarbonyl-5-tert-butoxycarbonylamino-pentylcarbamoyl)-methyl ester], for which the IC50 was found to be 0.0166 µM.
